Measured values from US9499493B2, “2,4-pyrimidinediamine compounds and their uses” (Rigel Pharmaceuticals, Inc., priority 2002, dated 2016).

Columns and labels:
[1] = tested on: cultured human mast cells (CHMC); assay: CHMC low cell density IgE activation: tryptase assay; format: cell-based; settings: anti-IgE
Summary of the method: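 Read-out: tryptase released into supernatant, measured by substrate turnover over 30 min at RT. Low-density CHMC (1000-1500 cells/well, per donor degranulation activity) in MT buffer, 1 hr at 37° C, then anti-IgE challenge 30 min at 37° C.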

[2] = tested on: cultured human mast cells (CHMC); assay: CHMC low cell density ionomycin activation: tryptase assay; format: cell-based

Row | IC50 [1] | IC50 [2] | IC50 ([1]; Homo sapiens, Mast cell) | IC50 ([2]; Homo sapiens, Mast cell) | SMILES
1 | 0.275 µM | > 10 µM |  |  | OCCCn1ncc2ccc(Nc3ncc(F)c(Nc4ccc5oc(CO)cc5c4)n3)cc21 [R935308, 5-Fluoro-N4-(2-hydroxymethylbenzofur-5-yl)-N2-[1-(3-hydroxypropyl)indazoline-6-yl]-2,4-pyrimidinediamine]
2 | 0.411 µM | > 10 µM |  |  | COC(=O)c1ccc(Cn2cc3ccc(Nc4ncc(F)c(Nc5ccc(OC(C)C)cc5)n4)cc3n2)c(OC)c1 [R935338, 5-Fluoro-N4-(4-isopropoxyphenyl)-N2-[2-(2-methoxy-4-carbomethoxybenzyl)indazoline-6-yl]-2,4-pyrimidinediamine]
3 | > 10 µM | > 10 µM |  |  | Cn1ncc2cc(Nc3ncc(F)c(Nc4ccc(Cl)cc4)n3)ccc21 [R935351, N4-(4-Chlorophenyl)-5-fluoro-N2-(1-methyl-indazoline-5-yl)-2,4-pyrimidinediamine]
4 | > 10 µM | > 10 µM |  |  | CCOC(=O)CCn1ncc2cc(Nc3ncc(F)c(Nc4ccc(Cl)cc4)n3)ccc21 [R935353, N4-(4-Chlorophenyl)-N2-[1-(2-ethoxycarbonylethyl)indazoline-5-yl]-5-fluoro-2,4-pyrimidinediamine]
5 | > 10 µM | > 10 µM |  |  | Cn1ncc2cc(Nc3ncc(F)c(Nc4ccc(Cl)c(Cl)c4)n3)ccc21 [R935355, N4-(3,4-Dichlorophenyl)-5-fluoro-N2-(1-methylindazoline-5-yl)-2,4-pyrimidinediamine]
6 | > 10 µM | > 10 µM |  |  | Cn1ncc2cc(Nc3ncc(F)c(Nc4ccc(F)c(F)c4)n3)ccc21 [R935358, N4-(3,4-Difluorophenyl)-5-fluoro-N2-(1-methylindazoline-5-yl)-2,4-pyrimidinediamine]
7 | 1.03 µM | > 10 µM |  |  | Cn1ncc2cc(Nc3ncc(F)c(Nc4ccc(OC(F)(F)F)c(Cl)c4)n3)ccc21 [R935359, N4-(3-chloro-4-trifluoromethoxyphenyl)-5-fluoro-N2-(1-methylindazoline-5-yl)-2,4-pyrimidinediamine]
8 | 0.903 µM | > 10 µM |  |  | CCOC(=O)CCn1ncc2cc(Nc3ncc(F)c(Nc4cccc(OC(F)(F)F)c4)n3)ccc21 [R935360, N2-[1-(2-Ethoxycarbonylethyl)indazoline-5-yl]-5-fluoro-N4-(3-trifluoromethoxyphenyl)-2,4-pyrimidinediamine]
9 | 1.44 µM | > 10 µM |  |  | CNC(=O)CCn1ncc2cc(Nc3ncc(F)c(Nc4cccc(OC(F)(F)F)c4)n3)ccc21 [R935361, 5-Fluoro-N2-[1-[2(N-methylaminocarbonyl)ethyl]indazoline-5-yl]-N4-(3-trifluoromethoxyphenyl)-2,4-pyrimidinediamine]
10 | 0.409 µM | > 10 µM |  |  | OCCCn1ncc2cc(Nc3ncc(F)c(Nc4cccc(OC(F)(F)F)c4)n3)ccc21 [R935362, 5-Fluoro-N2-[1-(3-hydroxypropyl)indazoline-5-yl]-N4-(3-trifluoromethoxyphenyl)-2,4-pyrimidinediamine]
11 | 0.563 µM | > 10 µM |  |  | Fc1cnc(Nc2ccc3[nH]ncc3c2)nc1Nc1cccc(OC(F)(F)F)c1 [R935364, 5-Fluoro-N2-(indazoline-5-yl)-N4-(3-trifluoromethoxyphenyl)-2,4-pyrimidinediamine]
12 | 0.373 µM | > 10 µM |  |  | Fc1cnc(Nc2ccc3[nH]ncc3c2)nc1Nc1ccc(Cl)cc1 [R935365, N4-(4-Chlorophenyl)-5-fluoro-N2-(indazoline-5-yl)-2,4-pyrimidinediamine]
13 | 0.216 µM | > 10 µM |  |  | Fc1cnc(Nc2ccc3[nH]ncc3c2)nc1Nc1ccc(OC(F)(F)F)c(Cl)c1 [R935366, N4-(3-Chloro-4-trifluoromethoxyphenyl)-5-fluoro-N2-(indazoline-5-yl)-2,4-pyrimidinediamine]
14 | 0.082 µM | > 10 µM |  |  | Fc1cnc(Nc2ccc3cn[nH]c3c2)nc1Nc1ccc(OC(F)(F)F)c(Cl)c1 [R935368, N4-(3-Chloro-4-trifluoromethoxyphenyl)-5-fluoro-N2-(indazoline-6-yl)-2,4-pyrimidinediamine]
15 | 0.794 µM | > 10 µM |  |  | Fc1cnc(Nc2ccc3[nH]ncc3c2)nc1Nc1ccc(Cl)c(Cl)c1 [R935371, N4-(3,4-Dichlorophenyl)-5-fluoro-N2-(indazoline-5-yl)-2,4-pyrimidinediamine]
16 | 0.274 µM | > 10 µM |  |  | Fc1cnc(Nc2ccc3[nH]ncc3c2)nc1Nc1ccc2c(c1)OC(F)(F)O2 [R935373, N4-(3,4-Difluoromethylendioxyphenyl)-5-fluoro-N2-(indazoline-5-yl)-2,4-pyrimidinediamine]
17 | 0.356 µM | > 10 µM |  |  | Fc1cnc(Nc2ccc3cn[nH]c3c2)nc1Nc1ccc2c(c1)OC(F)(F)O2 [R935374, N4-(3,4-Difluoromethylendioxyphenyl)-5-fluoro-N2-(indazoline-6-yl)-2,4-pyrimidinediamine]
18 | 10 µM | > 10 µM |  |  | Cn1ncc2cc(Nc3ncc(F)c(Nc4ccc(Cl)nc4)n3)ccc21 [R935375, N4-(6-Chloro-3-pyridyl)-5-fluoro-N2-(1-methylindazoline-5-yl)-2,4-pyrimidinediamine]

Row | IC50 [1] | IC50 [2] | IC50 ([1]; Homo sapiens, Mast cell) | IC50 ([2]; Homo sapiens, Mast cell) | SMILES
19 | 0.566 µM | > 10 µM |  |  | CNC(=O)CCn1ncc2cc(Nc3ncc(F)c(Nc4ccc(Cl)nc4)n3)ccc21 [R935378, N4-(6-Chloro-3-pyridyl)-5-fluoro-N2-[1-[2(N-methylaminocarbonyl)ethyl]indazoline-5-yl]-2,4-pyrimidinediamine]
20 |  |  | > 10 µM | > 10 µM | COc1ccc(Nc2ncc([N+](=O)[O-])c(Nc3ccc(OC)c(OC)c3)n2)cc1OC [R940089, N2,N4-Bis-(3,4-dimethoxyphenyl)-5-nitro-2,4-pyrimidinediamine]
21 |  |  | > 10 µM | > 10 µM | CCOc1ccc(Nc2ncc([N+](=O)[O-])c(Nc3ccc(OCC)cc3)n2)cc1 [R940090, N2,N4-Bis-(4-ethoxyphenyl)-5-nitro-2,4-pyrimidinediamine]
22 | 1.01 µM | > 10 µM |  |  | CCOC(=O)COc1cccc(Nc2ncc(F)c(Nc3cc(C)c(O)c(C)c3)n2)c1 [R940253, N4-(3,5-Dimethyl-4-hydroxyphenyl)-N2-(3-ethoxycarbonylmethyleneoxyphenyl)-5-fluoro-2,4-pyrimidinediamine]
23 | 0.986 µM | > 10 µM |  |  | Cc1cc(Nc2nc(Nc3cccc(OCC(=O)N4CCOCC4)c3)ncc2F)cc(C)c1O [R940254, N4-(3,5-Dimethyl-4-hydroxyphenyl)-5-fluoro-N2-[3-(N-morpholino)carbonylmethyleneoxyphenyl]-2,4-pyrimidinediamine]
24 | > 10 µM | > 10 µM |  |  | COc1ccc(Nc2nc(NC3CCN(Cc4ccccc4)CC3)ncc2F)cc1OC [R940263, N2-[4-(N-Benzylpiperidino)]-N4-(3,4-dimethoxyphenyl)-5-fluoro-2,4-pyrimidinediamine]
25 | 10 µM | > 10 µM |  |  | Oc1cccc(Nc2nc(NC3CCN(Cc4ccccc4)CC3)ncc2F)c1 [R940264, N2-[4-(N-Benzylpiperidino)]-5-fluoro-N4-(3-hydroxyphenyl)-2,4-pyrimidinediamine]
26 | > 10 µM | > 10 µM |  |  | CCOC(=O)COc1cccc(Nc2nc(Nc3cccc(C(C)(C)C)c3)ncc2F)c1 [R940266, N2-(3-tert-Butylphenyl)-N4-(3-ethoxycarbonylmethyleneoxyphenyl)-5-fluoro-4-pyrimidinediamine]
27 | 3.15 µM | > 10 µM |  |  | CNC(=O)COc1cccc(Nc2nc(Nc3cccc(C(C)(C)C)c3)ncc2F)c1 [R940267, N2-(3-tert-Butylphenyl)-N4-[3-(N-methylamino)carbonylmethyleneoxyphenyl]-5-fluoro-2,4-pyrimidinediamine]
28 | 2.14 µM | 8.74 µM |  |  | CCOC(=O)COc1cccc(Nc2ncc(F)c(Nc3cccc(C(C)(C)C)c3)n2)c1 [R940270, N4-(3-tert-Butylphenyl)-N2-(3-ethoxycarbonylmethyleneoxyphenyl)-5-fluoro-2,4-pyrimidinediamine]
29 | 7 µM | > 10 µM |  |  | CC(C)(C)c1cccc(Nc2nc(Nc3cccc(OCC(=O)O)c3)ncc2F)c1 [R940280, N4-(3-tert-Butylphenyl)-N2-[3-carboxymethyleneoxyphenyl]-5-fluoro-2,4-pyrimidinediamine]
30 | 0.401 µM | 3.02 µM |  |  | CC(C)(C)c1cccc(Nc2nc(Nc3cccc(OCCO)c3)ncc2F)c1 [R940282, N4-(3-tert-Butylphenyl)-5-fluoro-N2-[3-(2-hydroxyethyleneoxy)phenyl]-2,4-pyrimidinediamine]
31 | 3.5 µM | > 10 µM |  |  | CCOC(=O)COc1cccc(Nc2ncc(F)c(Nc3ccc4c(c3)C(=O)OC4)n2)c1 [R940285, N2-[3-Ethoxycarbonylmethyleneoxyphenyl]-N4-(3,3-dihydroisobenzofuranyl-1-one-6-yl)-5-fluoro-2,4-pyrimidinediamine]
32 | 0.337 µM | 7.08 µM |  |  | CC(C)c1cccc(Nc2nc(Nc3ccc4oc(CO)cc4c3)ncc2F)c1 [R940286, 5-Fluoro-N4-(3-isopropylphenyl)-N2-[(2-hydroxymethylene]benzofur-5-yl]-2,4-pyrimidinediamine]
33 | 0.288 µM | 7.68 µM |  |  | CC(C)(C)c1cccc(Nc2nc(Nc3ccc4oc(CO)cc4c3)ncc2F)c1 [R940287, N4-(3-tert-Butylphenyl)-5-fluoro-N2-[(2-hydroxymethylene)benzofur-5-yl]-2,4-pyrimidinediamine]
34 | 0.208 µM | > 10 µM |  |  | CNC(=O)COc1cccc(Nc2ncc(F)c(Nc3cccc(C(C)C)c3)n2)c1 [R940288, 5-Fluoro-N4-(3-isopropylphenyl)-N2-[3-(N-methylamino)carbonylmethyleneoxyphenyl]-2,4-pyrimidinediamine]
35 | 0.272 µM | > 10 µM |  |  | CC(C)c1cccc(Nc2nc(Nc3cccc(OCCO)c3)ncc2F)c1 [R940289, 5-Fluoro-N2-[3-(2-hydroxyethyleneoxy)phenyl]-N4-(3-isopropylphenyl)-2,4-pyrimidinediamine]
